From PubChem BioAssay AID1963980 (Molecular Pharmacology Branch, DTP, NCI, 2024)

Test system: 475296-252-R-J1-PDC spheroid viability
Experiment: Anticancer human tumor 475296-252-R-J1-PDC patient-derived rectal carcinoma cell line growth inhibition [PI3K]
Conditions: spheroids with HUVEC and MSC; for IC50: curve of first compound; for viability, T/C: stronger effect = lower value
Outline: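 Combination activity was assessed by viability in multicellular tumor spheroids carrying HUVEC and MSC components. Agents were tested with PI3K inhibitors from a Cmax-based top dose (or 10 microM) downward in half-log increments.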

[1] = second compound 0.0316 µM, first compound 0.0316 µM
[2] = second compound 0.0316 µM, first compound 0.1 µM
[3] = second compound 0.0316 µM, first compound 0.316 µM
[4] = second compound 0.0316 µM, first compound 1 µM
[5] = second compound 0.0316 µM, first compound 3.16 µM
[6] = second compound 0.0316 µM, first compound 10 µM
[7] = second compound 0.1 µM, first compound 0.0316 µM
[8] = second compound 0.1 µM, first compound 0.1 µM
[9] = second compound 0.1 µM, first compound 0.316 µM
[10] = second compound 0.1 µM, first compound 1 µM
[11] = second compound 0.1 µM, first compound 3.16 µM
[12] = second compound 0.1 µM, first compound 10 µM
[13] = second compound 0.316 µM, first compound 0.0316 µM
[14] = second compound 0.316 µM, first compound 0.1 µM
[15] = second compound 0.316 µM, first compound 0.316 µM
[16] = second compound 0.316 µM, first compound 1 µM
[17] = second compound 0.316 µM, first compound 3.16 µM
[18] = second compound 0.316 µM, first compound 10 µM
[19] = second compound 1 µM, first compound 0.0316 µM
[20] = second compound 1 µM, first compound 0.1 µM
[21] = second compound 1 µM, first compound 0.316 µM
[22] = second compound 1 µM, first compound 1 µM
[23] = second compound 1 µM, first compound 3.16 µM
[24] = second compound 1 µM, first compound 10 µM
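Note: spheroids exposed to agents for seven days before readout.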

For C[C@@H](NC(=O)c1ncnc(N)c1Cl)c1ncc(C(=O)Nc2cc(C(F)(F)F)c(Cl)cn2)s1 + COc1c(OCCCN2CCOCC2)ccc2c3n(c(=NC(=O)c4cnc(N)nc4)nc12)CCN3, the IC50 (second compound 0.00316 µM) was greater than 10 µM, the IC50 (second compound 0.01 µM) was greater than 10 µM and the IC50 (second compound 0.0316 µM) was greater than 10 µM. It also gave an IC50 (second compound 0.1 µM) of 7.87 µM, an IC50 (second compound 0.316 µM) of 9.5 µM and an IC50 (second compound 1 µM) of 3.76 µM. It also gave a viability, T/C (second compound 0.00316 µM, first compound 0.0316 µM) of 82.4%, a viability, T/C (second compound 0.00316 µM, first compound 0.1 µM) of 88% and a viability, T/C (second compound 0.00316 µM, first compound 0.316 µM) of 94.8%. It also gave a viability, T/C (second compound 0.00316 µM, first compound 1 µM) of 101%, a viability, T/C (second compound 0.00316 µM, first compound 3.16 µM) of 94.5% and a viability, T/C (second compound 0.00316 µM, first compound 10 µM) of 79.3%. For the same compound, the viability, T/C (second compound 0.01 µM, first compound 0.0316 µM) was 88%, the viability, T/C (second compound 0.01 µM, first compound 0.1 µM) was 86.8% and the viability, T/C (second compound 0.01 µM, first compound 0.316 µM) was 90.4%. For the same compound, the viability, T/C (second compound 0.01 µM, first compound 1 µM) was 85.9%, the viability, T/C (second compound 0.01 µM, first compound 3.16 µM) was 101% and the viability, T/C (second compound 0.01 µM, first compound 10 µM) was 67.3%. It also gave a viability, T/C [1] of 78.6%, a viability, T/C [2] of 83.7% and a viability, T/C [3] of 79.7%. For the same compound, the viability, T/C [4] was 78.1%, the viability, T/C [5] was 80.8% and the viability, T/C [6] was 61%. It also gave a viability, T/C [7] of 74.1%, a viability, T/C [8] of 74.1% and a viability, T/C [9] of 83.5%. The viability, T/C [10] was 69.3%, the viability, T/C [11] was 80.1% and the viability, T/C [12] was 43.3%. It also gave a viability, T/C [13] of 62.5%, a viability, T/C [14] of 61.8% and a viability, T/C [15] of 53.9%. For the same compound, the viability, T/C [16] was 67.4%, the viability, T/C [17] was 69% and the viability, T/C [18] was 32.6%. It also gave a viability, T/C [19] of 61.9%, a viability, T/C [20] of 58.6% and a viability, T/C [21] of 74.4%. For the same compound, the viability, T/C [22] was 58.9%, the viability, T/C [23] was 54.9% and the viability, T/C [24] was 23.8%.
Work on Cn1nccc1Nc1nccc(-c2ccn(C(CO)c3ccc(Cl)c(F)c3)c(=O)c2)n1 (centres undefined) + CC(Nc1ncnc2nc[nH]c12)c1cc2cccc(Cl)c2c(=O)n1-c1ccccc1 yielded an IC50 (second compound 0.0316 µM) greater than 10 µM, an IC50 (second compound 0.1 µM) greater than 10 µM and an IC50 (second compound 0.316 µM) greater than 10 µM. The IC50 (second compound 1 µM) was greater than 10 µM, the IC50 (second compound 3.16 µM) was greater than 10 µM and the IC50 (second compound 10 µM) was greater than 10 µM. It also gave a viability, T/C [1] of 94.3%, a viability, T/C [2] of 102% and a viability, T/C [3] of 89.8%. It also gave a viability, T/C [4] of 92.2%, a viability, T/C [5] of 92.9% and a viability, T/C [6] of 70.7%. For the same compound, the viability, T/C [7] was 90.2%, the viability, T/C [8] was 91.3% and the viability, T/C [9] was 96.1%. The viability, T/C [10] was 86.9%, the viability, T/C [11] was 80.7% and the viability, T/C [12] was 77.4%. The viability, T/C [13] was 93.4%, the viability, T/C [14] was 95.2% and the viability, T/C [15] was 101%. The viability, T/C [16] was 92.8%, the viability, T/C [17] was 86.9% and the viability, T/C [18] was 65.5%. The viability, T/C [19] was 97.8%, the viability, T/C [20] was 97.7% and the viability, T/C [21] was 98.5%. The viability, T/C [22] was 89.2%, the viability, T/C [23] was 93.6% and the viability, T/C [24] was 59.1%. It also gave a viability, T/C (second compound 3.16 µM, first compound 0.0316 µM) of 97.4%, a viability, T/C (second compound 3.16 µM, first compound 0.1 µM) of 96.8% and a viability, T/C (second compound 3.16 µM, first compound 0.316 µM) of 89.2%. It also gave a viability, T/C (second compound 3.16 µM, first compound 1 µM) of 80.4%, a viability, T/C (second compound 3.16 µM, first compound 3.16 µM) of 82.2% and a viability, T/C (second compound 3.16 µM, first compound 10 µM) of 59.1%. The viability, T/C (second compound 10 µM, first compound 0.0316 µM) was 90.9%, the viability, T/C (second compound 10 µM, first compound 0.1 µM) was 80.6% and the viability, T/C (second compound 10 µM, first compound 0.316 µM) was 91.2%. It also gave a viability, T/C (second compound 10 µM, first compound 1 µM) of 83.6%, a viability, T/C (second compound 10 µM, first compound 3.16 µM) of 76.4% and a viability, T/C (second compound 10 µM, first compound 10 µM) of 54.9%.
